The source of these data is article PMC9064588 (RSC Advances, 2019).

Structures are written as SMILES.

The target in the assay is α-glucosidase (Maltase EC 3.2.1.20). The experiment in a line: PNPG hydrolysis enzyme inhibition assay, absorbance at […] nm. The assay is classed as biochemical.

As for `Oc1cc(O)c2c(c1)O[C@@]1(c3ccc(O)c(O)c3)Oc3cc(O)c4c(c3[C@@H]2[C@H]1O)O[C@H](c1ccc(O)c(O)c1)[C@H](O)C4` [PCA2, Procyanidin A2], the midpoint of inhibition, the IC50, lay at 460 ± 10 nM.
